Reference: patent US20110071146A1, “17BetaHSD Type 5 Inhibitor” (ASTELLAS PHARMA INC., priority 2006, published 2011)
pIC50: −log10 of the molar value. Like-named read-outs stand apart in the source and are kept apart here.

Experiments:
human 17βHSD type 5 = target: T1, human 17βHSD type 5 (Homo sapiens, UniProt P42330); test: Measurement of enzyme activity of human 17βHSD type 5 (testosterone production from androstenedione, DELFIA); format: biochemical; details: for pIC50: purified human 17βHSD type 5, androstenedione 300 nM, NADPH 200 μM, pH 6.0, room temperature 2 hours
T1 construct: A full-length cDNA encoding human 17βHSD type 5 used in the pharmacological test; made in house; host or cells: Escherichia coli BL21
T1 sequence (P42330 1-323): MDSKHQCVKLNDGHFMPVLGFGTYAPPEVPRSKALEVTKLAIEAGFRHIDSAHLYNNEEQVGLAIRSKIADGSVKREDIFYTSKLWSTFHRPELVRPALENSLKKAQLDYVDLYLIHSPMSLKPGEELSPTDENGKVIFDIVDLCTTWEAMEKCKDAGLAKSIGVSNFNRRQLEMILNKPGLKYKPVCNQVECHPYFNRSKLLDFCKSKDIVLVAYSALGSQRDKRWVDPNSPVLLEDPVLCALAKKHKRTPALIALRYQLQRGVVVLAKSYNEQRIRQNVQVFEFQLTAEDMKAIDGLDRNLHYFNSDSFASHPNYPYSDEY
Text: (§1) An excellent selective inhibitory activity against human 17βHSD type 5 of the compounds of the present invention was confirmed by a test method described below. Further, the test may be performed by referring to the details of test procedure described in Maniatis, T. et al., Molecular Cloning—A Laboratory Manual Cold Spring Harbor Laboratory, NY and the like (1982). In addition, a gene encoding human 17βHSD type5 and type3 described in 1 and 2 below, and human 17βHSD type5 and type3 may be obtained by the method described in Mol. Endocrinol, 1971-1984, 11(13) (1997).
A full-length cDNA encoding human 17βHSD type 5 used in the pharmacological test of the present invention was obtained by the PCR method using a cDNA derived from a human lung cancer-derived cell line, A549 cells as a template. The nucleotide sequence of the obtained cDNA was analyzed by the dideoxyterminator method, and the clone matched with the known human 17βHSD type 5 sequence (GenBank accession No. NM_003739) was selected. Escherichia coli BL21 was transformed with a plasmid containing the cDNA, cultured on a large scale, and the proteins were purified by using GSTrapFF column (Amersham) and PreScissionProtease (Amersham). The purification was performed in accordance with the instructions attached to the GSTrapFF column.
(§2) Enzyme activity was measured referring to Trevor M. Penning, et al., Biochem. J., 351, 67-77, (2000). Specifically, using a 100 mM potassium phosphate buffer (pH 6.0), (1) the enzyme purified in above 1 at a final concentration of 10 μg/mL, (2) androstenedione at a final concentration of 300 nM, (3) NADPH at a final concentration of 200 μM and (4) a test substance at a final concentration of 3 μM were mixed to react at room temperature for 2 hours, and then the amount of testosterone produced was measured using DELFIA (registered trademark) Testosterone Reagents R050-201 (PerkinElmer). The measurement was performed in accordance with the attached instructions. The amount of reduction of testosterone production in the presence of the compound was obtained as a relative value with respect to the amount of testosterone in the absence of the enzyme set at 0% and the amount of testosterone produced in the absence of the compound set at 100%. Then, IC50 values were calculated by the Logistic regression method.

human 17βHSD type 3 = target: T2, human 17βHSD type 3 (Homo sapiens, UniProt P37058); test: Measurement of enzyme activity of human 17βHSD type 3 (testosterone production from androstenedione, DELFIA); format: biochemical; details: human 17βHSD type 3 (293 cell supernatant as enzyme source)
T2 construct: A full-length cDNA encoding human 17βHSD type 3 used in the pharmacological test; made in house; host or cells: human fetus kidney-derived 293 cells (transfected; supernatant of disrupted cells, not purified)
T2 sequence (P37058 1-310): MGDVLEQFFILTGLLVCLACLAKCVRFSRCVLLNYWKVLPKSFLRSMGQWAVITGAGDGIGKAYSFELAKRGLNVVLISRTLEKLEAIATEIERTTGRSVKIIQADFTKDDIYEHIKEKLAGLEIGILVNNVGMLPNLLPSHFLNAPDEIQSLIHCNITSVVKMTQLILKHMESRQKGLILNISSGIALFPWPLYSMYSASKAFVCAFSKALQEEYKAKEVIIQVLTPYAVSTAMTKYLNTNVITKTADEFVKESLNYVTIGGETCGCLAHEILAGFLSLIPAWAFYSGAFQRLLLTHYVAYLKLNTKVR
Text: as §1
A full-length cDNA encoding human 17βHSD type 3 used in the pharmacological test of the present invention was obtained by the PCR method using a cDNA derived from human testis as a template. The nucleotide sequence of the obtained cDNA was analyzed by the dideoxyterminator method, and the clone matched with the known human 17βHSD type 3 sequence (GenBank accession No. BC034281) was selected. Subsequently, a human fetus kidney-derived cell line, 293 cells was transformed with a plasmid containing the cDNA, and the cells were collected 24 hours later. The collected cells were then disrupted in a phosphate buffer solution containing 5% glycerol (500 μL per 100 mm-dish of a phosphate buffer solution (pH 7.4, 200 mM) containing 5% glycerol) and centrifuged (16000 rpm, 5 min, 4° C.), and the supernatant was used as an enzyme source.
as §2

[1] = Measurement of concentrations of human 17βHSD type 5 inhibitor compounds in mouse tissues (plasma, prostate) after oral administration; format: in vivo; details: male ICR mice, 2 hours after administration
Protocol: The concentrations in plasma and in prostate were measured after oral administration of a test substance. Male 8 to 15-week old ICR mice were used, and a solution or suspension obtained by adding 1 N NaOH solution and water in an equivalent amount to a test substance and stirring was used as an administration solution. The administration solution was administered orally once to mice, and after 2 hours, blood and a prostate were collected under ether anesthesia. The prostate was frozen and stored at −80° C. until measurement. The blood was centrifuged (3000 rpm, 15 min, 4° C.) after the addition of a minor amount of heparin, and the upper layer was collected as plasma and frozen and stored at −80° C. until measurement. 0.1 mL of the plasma was subjected to protein degeneration with 0.1 mL of acetonitrile and then centrifuged (15000 rpm, 7 min, 4° C.) to remove proteins and the supernatant thus obtained was used as an HPLC sample. The prostate was homogenized in a phosphate buffer solution (200 mM, pH 7.4, 0.5 mL), and then the whole volume was added to 3 mL of t-butyl methyl ether to perform extraction. The solvent was evaporated in a stream of nitrogen (15 min, 45° C.). The residue was resuspended in a Tris buffer solution (12.5 mM, pH 7.4, 0.3 mL) containing 2% BSA, and an equal volume of acetonitrile (0.3 mL) was added. Protein was removed as in the case of plasma and the supernatant was used as an HPLC measurement sample. Measurement was performed by an ordinary method using liquid chromatography (HPLC).
Column: STR ODS-II (registered trademark), particle size: 5 μm, inner diameter: 4.6 mm, length: 150 mm, joint type: Waters Mobile phase: 20 mM ammonium acetate:acetonitrile=7:3 or 17 mM ammonium acetate:acetonitrile=6:4 Flow rate: 1 mL/min Column temperature: 40° C. Injection volume: 50 μL

5α-reductase = details: patients with BPH; cited from earlier work
[2] = plasma, oral single dose 100 mg/kg, read-out: Conc (plasma)
[3] = plasma, oral single dose 300 mg/kg, read-out: Conc (plasma)
[4] = prostate, oral single dose 100 mg/kg, read-out: Conc (prostate)
[5] = prostate, oral single dose 300 mg/kg, read-out: Conc (prostate)

SMILES | pIC50 (human 17βHSD type 5) | pIC50 (human 17βHSD type 3) | concentration at 2 h [1, 2] | concentration at 2 h [1, 4] | other results
Cc1ccc(S(=O)(=O)n2cc(C(=O)O)c3ccccc32)cc1 [Example 138] | 6.48 | < 5.00 |  |  | 
O=C(O)c1cn(S(=O)(=O)c2ccc(Br)cc2)c2c1CCCC2 [Example 208] | 5.66 | < 5.00 |  |  | 
O=C(O)c1cn(S(=O)(=O)c2ccccc2)c2c(Cl)cccc12 [Example 191] | 6.52 | < 5.00 |  |  | 
Cc1cc(Br)ccc1S(=O)(=O)n1cc(C(=O)O)c2cccc(Cl)c21 [Example 194] | 6.72 | 5.21 |  |  | 
O=C(O)c1cn(S(=O)(=O)c2ccc(Br)cc2)c2c(Cl)cccc12 [Example 192] | 7.16 | < 5.00 | 57.3 µM | 9.4 µM | concentration at 2 h [1, 3]: 126 µM; concentration at 2 h [1, 5]: 24.9 µM
O=C(O)c1c(Cl)n(Cc2ccc(Cl)cc2)c2ccccc12 [(1), reference compound] | < 5.00 |  |  |  | 
CC(C)c1ccc(S(=O)(=O)n2cc(C(=O)O)c3cccc(Cl)c32)cc1 [Example 193] | 6.89 | < 5.00 |  |  | 
O=C(O)c1cn(S(=O)(=O)c2ccccc2)c2ccccc12 [Example 1, 1-(phenylsulfonyl)-1H-indole-3-carboxylic acid] |  |  | 57.4 µM | 13.3 µM | concentration at 2 h ([1]; plasma, oral single dose 30 mg/kg, read-out: Conc (plasma)): 17 µM; concentration at 2 h [1, 3]: 145 µM; concentration at 2 h ([1]; prostate, oral single dose 30 mg/kg, read-out: Conc (prostate)): 5.3 µM; concentration at 2 h [1, 5]: 47.4 µM
O=C(O)c1cn(S(=O)(=O)c2ccccc2)c2ccc(Cl)cc12 [Example 190] | 6.16 | < 5.00 |  |  | concentration at 2 h [1, 3]: 226 µM; concentration at 2 h [1, 5]: 37.4 µM
CC(C)(C)NC(=O)[C@H]1CC[C@H]2[C@@H]3CC[C@H]4NC(=O)C=C[C@]4(C)[C@H]3CC[C@]12C [finasteride] |  |  |  |  | concentration of DHT in the prostate after administration, relative to the concentration before the administration (5α-reductase): about 20%; increase of the concentration of testosterone in the prostate (5α-reductase): 4 fold
COc1ccc(S(=O)(=O)n2cc(C(=O)O)c3ccccc32)cc1 [Example 133, 1-[(4-methoxyphenyl)sulfonyl]-1H-indole-3-carboxylic acid] | 5.51 | < 5.00 |  |  | 
CCc1cccc2c(C(=O)O)cn(S(=O)(=O)c3ccccc3)c12 [Example 168] | 7.07 | < 5.00 |  |  | 
O=C(O)c1c(Cl)n(Cc2ccc(Cl)cc2Cl)c2ccccc12 [(2), reference compound] | < 5.00 |  |  |  | 17βHSD type 5 inhibitory activity (in words) (human 17βHSD type 5; summary of Table 51): scarcely exhibited 17βHSD type 5 inhibitory activity
COc1cccc2c1c(C(=O)O)cn2S(=O)(=O)c1ccccc1 [Example 155] | 5.26 | < 5.00 | 88.4 µM | 23 µM | 
O=C(O)c1cn(S(=O)(=O)c2ccccc2)c2ccc(F)cc12 [Example 175] | 6.92 | 5.05 | 83.8 µM | 8.6 µM | 
O=C(O)c1cn(S(=O)(=O)c2ccc(Br)cc2)c2ccccc12 [Example 144] | 7.05 | < 5.00 | 38.5 µM | 7.2 µM | concentration at 2 h [1, 3]: 79.1 µM; concentration at 2 h [1, 5]: 24.8 µM
O=C(O)c1cn(S(=O)(=O)c2ccccc2)c2c(F)cccc12 [Example 187] | 5.66 | < 5.00 | 69.7 µM | 12.2 µM | 
O=C(O)c1cn(S(=O)(=O)c2ccc(Br)cc2)c2cc3c(cc12)OCO3 [Example 203] | 5.70 | < 5.00 |  |  | 
Cc1ccc2c(c1)c(C(=O)O)cn2S(=O)(=O)c1ccccc1 [Example 163] | 6.66 | < 5.00 | 88.8 µM | 19.1 µM | 
